Laboratory results reported in ChEMBL document CHEMBL1201862, “PubChem BioAssay data set” (2004).
Active and inactive are the calls of the source.

Columns and labels:
Fibrinogen beta chain [1] = target: T1, Fibrinogen beta chain (Homo sapiens, UniProt P02675); test: Fluorescence polarization-based biochemical high throughput dose response assay to identify inhibitors that disrupt the binding of a cyclic peptide (Tn6) to the fibrin proteolytic product D-Dimer and fragment E complex [DD(E )].
T1 sequence (P02675 whole entry): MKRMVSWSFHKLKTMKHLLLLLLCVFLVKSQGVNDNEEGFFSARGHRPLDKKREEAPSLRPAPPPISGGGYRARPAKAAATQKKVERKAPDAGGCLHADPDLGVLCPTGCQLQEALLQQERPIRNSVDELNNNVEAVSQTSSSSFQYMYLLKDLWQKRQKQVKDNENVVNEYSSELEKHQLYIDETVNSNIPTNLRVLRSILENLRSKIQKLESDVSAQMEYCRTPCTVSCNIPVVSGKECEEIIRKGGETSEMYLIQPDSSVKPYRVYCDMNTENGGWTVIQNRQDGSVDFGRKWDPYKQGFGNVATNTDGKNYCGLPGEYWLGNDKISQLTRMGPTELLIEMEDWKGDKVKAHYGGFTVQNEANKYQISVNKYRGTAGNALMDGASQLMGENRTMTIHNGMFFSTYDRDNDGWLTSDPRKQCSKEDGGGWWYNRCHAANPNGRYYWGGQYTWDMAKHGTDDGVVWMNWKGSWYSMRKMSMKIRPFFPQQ

Fibrinogen beta chain [2] = target: T1, Fibrinogen beta chain; test: Fluorescence polarization-based biochemical high throughput dose response assay to identify inhibitors that disrupt the binding of a cyclic peptide (Tn7) to the fibrin proteolytic product D-Dimer and fragment E complex [DD(E )].
[3] = Vero cell cytotoxicity, dose response, cytotoxicity control for Vif-APOBEC3G degradation inhibitor project, Vero cells (AID 1117358); format: functional; settings: Human immunodeficiency virus 1, Vero
Prothrombin = Prothrombin (Homo sapiens, UniProt P00734); test: Thrombin 1536 HTS Dose Response Confirmation. [Related pubchem assays: 1046 (Thrombin 1536 HTS; hits were confirmed in this assay)]; format: functional
Coagulation factor XII = target: T2, Coagulation factor XII (Homo sapiens, UniProt P00748); format: functional;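 note: activated factor XIIa alpha cleaving a fluorogenic AMC peptide substrate; inhibitor potency from loss of enzyme activity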
T2 sequence (P00748 whole entry): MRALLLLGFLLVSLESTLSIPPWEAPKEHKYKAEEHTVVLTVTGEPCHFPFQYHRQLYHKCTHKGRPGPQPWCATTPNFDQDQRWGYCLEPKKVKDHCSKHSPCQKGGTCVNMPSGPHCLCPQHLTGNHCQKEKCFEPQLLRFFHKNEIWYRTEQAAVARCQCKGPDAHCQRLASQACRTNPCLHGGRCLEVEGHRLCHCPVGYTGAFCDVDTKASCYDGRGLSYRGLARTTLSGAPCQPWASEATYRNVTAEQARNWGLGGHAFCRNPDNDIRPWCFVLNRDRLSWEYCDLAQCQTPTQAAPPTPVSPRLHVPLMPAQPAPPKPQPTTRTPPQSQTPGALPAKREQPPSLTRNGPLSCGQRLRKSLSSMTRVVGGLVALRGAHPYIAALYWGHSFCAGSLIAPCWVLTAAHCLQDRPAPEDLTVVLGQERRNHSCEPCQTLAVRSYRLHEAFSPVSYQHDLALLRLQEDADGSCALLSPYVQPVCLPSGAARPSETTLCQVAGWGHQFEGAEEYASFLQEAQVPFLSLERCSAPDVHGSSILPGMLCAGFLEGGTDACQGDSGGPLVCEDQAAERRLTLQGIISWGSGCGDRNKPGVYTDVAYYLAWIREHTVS

Genome polyprotein = Genome polyprotein (dengue virus type 2, UniProt P29990); test: Dengue-2 NS5 methyltransferase inhibitors, primary screen, biochemical, confirmation dose response (AID 588689); format: functional
Fatty acid synthase [4] = target: T3, Fatty acid synthase (Homo sapiens, UniProt P49327); test: FAS thioesterase domain inhibitors, dose response, biochemical, endpoint fluorescence intensity, uHTS hits (AID 624327); format: functional;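 note: fluorescence from hydrolysis of an O-methyl fluorescein acyl ester substrate by the enzyme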
Fatty acid synthase [5] = target: T3, Fatty acid synthase; test: FAS thioesterase domain inhibitors, dose response, biochemical, kinetic fluorescence intensity (AID 624326); format: functional;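 note: rate of fluorescence rise from hydrolysis of a fluorogenic O-methyl fluorescein ester substrate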
[6] = Luminescence Cell-Based Dose Confirmation HTS to Identify Inhibitors of Polyadenylation.; format: functional
[7] = target: T4, Potassium channel subfamily K member 9 (Homo sapiens, UniProt Q9NPC2); test: KCNK9 (TASK3) current inhibition by patch clamp, SAR follow-up, selectivity assay for TASK1 (KCNK3) inhibitor project, cell-based, automated electrophysiology (AID 652210); format: functional
[8] = target: T4, Potassium channel subfamily K member 9; test: TASK3 (KCNK9) channel inhibitors, thallium flux, SAR follow-up, selectivity assay for TASK1 inhibitor project, cell-based, FluxOR thallium flux, concentration-response (AID 652211); format: functional;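 note: potency is for inhibitors of the channel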
[9] = target: Potassium channel subfamily K member 3 (Rattus norvegicus, UniProt O54912); test: SAR analysis for the identification of selective inhibitors of the two-pore domain potassium channel TASK1(KCNK3):Automated Electrophysiology.; format: functional
[10] = half-maximal inhibitory concentration for glucagon-like peptide-1 release, STC-1 cell line, dose-response (AID 1117345); format: functional, cell-based
[11] = Glucagon-like peptide 1 release potency, NCI-H716 cell line, dose-response, half-maximal inhibitory concentration (AID 1117344); format: functional, cell-based

T4 sequence (Q9NPC2 whole entry): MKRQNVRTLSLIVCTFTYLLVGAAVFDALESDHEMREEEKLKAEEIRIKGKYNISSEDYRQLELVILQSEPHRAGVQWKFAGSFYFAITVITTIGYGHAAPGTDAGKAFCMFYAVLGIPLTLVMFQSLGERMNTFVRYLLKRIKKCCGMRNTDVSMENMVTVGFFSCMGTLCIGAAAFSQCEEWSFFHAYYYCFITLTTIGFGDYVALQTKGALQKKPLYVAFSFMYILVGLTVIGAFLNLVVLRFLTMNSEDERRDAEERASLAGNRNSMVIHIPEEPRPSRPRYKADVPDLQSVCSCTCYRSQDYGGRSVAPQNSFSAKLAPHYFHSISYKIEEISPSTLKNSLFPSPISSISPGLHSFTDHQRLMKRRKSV
T3 sequence (P49327 whole entry, the tested form may be a part): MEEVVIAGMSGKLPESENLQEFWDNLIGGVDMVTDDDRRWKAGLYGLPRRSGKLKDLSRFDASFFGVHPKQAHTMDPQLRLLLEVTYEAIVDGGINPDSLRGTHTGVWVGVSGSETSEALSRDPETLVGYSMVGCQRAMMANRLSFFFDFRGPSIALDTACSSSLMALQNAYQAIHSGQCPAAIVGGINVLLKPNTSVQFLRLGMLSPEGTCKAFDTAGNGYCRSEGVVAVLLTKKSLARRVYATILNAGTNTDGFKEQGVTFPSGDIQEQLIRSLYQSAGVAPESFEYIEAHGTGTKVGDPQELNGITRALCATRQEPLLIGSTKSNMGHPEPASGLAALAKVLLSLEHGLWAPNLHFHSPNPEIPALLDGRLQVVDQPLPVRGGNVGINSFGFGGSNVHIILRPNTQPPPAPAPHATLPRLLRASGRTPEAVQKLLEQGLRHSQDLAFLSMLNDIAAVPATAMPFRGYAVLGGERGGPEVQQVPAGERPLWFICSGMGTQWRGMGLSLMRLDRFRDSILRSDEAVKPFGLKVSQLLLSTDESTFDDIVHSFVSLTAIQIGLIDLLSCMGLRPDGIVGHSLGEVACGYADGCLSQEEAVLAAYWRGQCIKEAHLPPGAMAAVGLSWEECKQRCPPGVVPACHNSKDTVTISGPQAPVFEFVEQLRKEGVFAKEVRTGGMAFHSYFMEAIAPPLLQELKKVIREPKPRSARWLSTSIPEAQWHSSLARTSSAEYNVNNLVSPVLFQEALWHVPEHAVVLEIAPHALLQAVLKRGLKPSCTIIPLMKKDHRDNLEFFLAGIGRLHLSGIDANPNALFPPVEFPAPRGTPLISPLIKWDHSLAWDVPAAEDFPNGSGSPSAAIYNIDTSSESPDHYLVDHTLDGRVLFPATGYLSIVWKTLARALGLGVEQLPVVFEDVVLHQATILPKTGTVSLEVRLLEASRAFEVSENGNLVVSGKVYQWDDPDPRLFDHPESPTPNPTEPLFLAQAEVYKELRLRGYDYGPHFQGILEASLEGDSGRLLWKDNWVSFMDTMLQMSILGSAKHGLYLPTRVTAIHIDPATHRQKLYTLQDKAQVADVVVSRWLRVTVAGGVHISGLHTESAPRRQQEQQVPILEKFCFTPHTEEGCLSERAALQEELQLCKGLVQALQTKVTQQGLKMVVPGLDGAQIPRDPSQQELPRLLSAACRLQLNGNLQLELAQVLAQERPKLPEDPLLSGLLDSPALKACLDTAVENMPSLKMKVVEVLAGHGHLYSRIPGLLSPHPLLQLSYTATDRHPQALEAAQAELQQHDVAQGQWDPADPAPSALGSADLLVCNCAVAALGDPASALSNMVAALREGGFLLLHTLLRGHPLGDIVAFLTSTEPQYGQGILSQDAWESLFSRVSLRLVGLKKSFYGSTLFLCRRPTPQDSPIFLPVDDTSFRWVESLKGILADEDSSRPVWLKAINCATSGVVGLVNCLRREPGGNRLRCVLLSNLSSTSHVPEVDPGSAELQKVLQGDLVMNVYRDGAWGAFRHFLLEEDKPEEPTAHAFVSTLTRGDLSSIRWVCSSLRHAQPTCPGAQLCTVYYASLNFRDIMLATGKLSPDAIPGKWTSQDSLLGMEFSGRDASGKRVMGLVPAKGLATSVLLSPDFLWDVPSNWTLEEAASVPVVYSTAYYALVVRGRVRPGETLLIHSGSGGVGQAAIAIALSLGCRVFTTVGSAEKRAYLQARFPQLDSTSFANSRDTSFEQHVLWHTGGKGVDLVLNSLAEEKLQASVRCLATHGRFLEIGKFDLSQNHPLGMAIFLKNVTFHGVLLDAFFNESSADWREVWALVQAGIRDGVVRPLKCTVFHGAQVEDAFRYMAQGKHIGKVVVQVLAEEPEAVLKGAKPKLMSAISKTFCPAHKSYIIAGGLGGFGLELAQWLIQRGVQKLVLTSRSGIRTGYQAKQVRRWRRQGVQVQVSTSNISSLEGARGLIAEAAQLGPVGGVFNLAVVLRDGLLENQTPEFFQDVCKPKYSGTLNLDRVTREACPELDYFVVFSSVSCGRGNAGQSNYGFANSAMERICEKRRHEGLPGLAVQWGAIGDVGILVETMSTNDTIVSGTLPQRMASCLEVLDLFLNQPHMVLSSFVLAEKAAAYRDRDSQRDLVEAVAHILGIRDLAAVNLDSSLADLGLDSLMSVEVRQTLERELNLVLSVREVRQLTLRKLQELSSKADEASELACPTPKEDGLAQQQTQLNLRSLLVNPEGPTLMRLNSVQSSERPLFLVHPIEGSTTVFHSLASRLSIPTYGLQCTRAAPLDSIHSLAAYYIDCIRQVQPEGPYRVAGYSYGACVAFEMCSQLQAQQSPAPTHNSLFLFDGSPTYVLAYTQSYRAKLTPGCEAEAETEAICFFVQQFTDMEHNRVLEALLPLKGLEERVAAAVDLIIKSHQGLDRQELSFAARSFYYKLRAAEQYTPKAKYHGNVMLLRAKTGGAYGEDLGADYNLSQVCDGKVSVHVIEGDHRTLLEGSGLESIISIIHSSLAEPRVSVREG
Genome polyprotein, sequence (P29990 2492-3391 limits assumed): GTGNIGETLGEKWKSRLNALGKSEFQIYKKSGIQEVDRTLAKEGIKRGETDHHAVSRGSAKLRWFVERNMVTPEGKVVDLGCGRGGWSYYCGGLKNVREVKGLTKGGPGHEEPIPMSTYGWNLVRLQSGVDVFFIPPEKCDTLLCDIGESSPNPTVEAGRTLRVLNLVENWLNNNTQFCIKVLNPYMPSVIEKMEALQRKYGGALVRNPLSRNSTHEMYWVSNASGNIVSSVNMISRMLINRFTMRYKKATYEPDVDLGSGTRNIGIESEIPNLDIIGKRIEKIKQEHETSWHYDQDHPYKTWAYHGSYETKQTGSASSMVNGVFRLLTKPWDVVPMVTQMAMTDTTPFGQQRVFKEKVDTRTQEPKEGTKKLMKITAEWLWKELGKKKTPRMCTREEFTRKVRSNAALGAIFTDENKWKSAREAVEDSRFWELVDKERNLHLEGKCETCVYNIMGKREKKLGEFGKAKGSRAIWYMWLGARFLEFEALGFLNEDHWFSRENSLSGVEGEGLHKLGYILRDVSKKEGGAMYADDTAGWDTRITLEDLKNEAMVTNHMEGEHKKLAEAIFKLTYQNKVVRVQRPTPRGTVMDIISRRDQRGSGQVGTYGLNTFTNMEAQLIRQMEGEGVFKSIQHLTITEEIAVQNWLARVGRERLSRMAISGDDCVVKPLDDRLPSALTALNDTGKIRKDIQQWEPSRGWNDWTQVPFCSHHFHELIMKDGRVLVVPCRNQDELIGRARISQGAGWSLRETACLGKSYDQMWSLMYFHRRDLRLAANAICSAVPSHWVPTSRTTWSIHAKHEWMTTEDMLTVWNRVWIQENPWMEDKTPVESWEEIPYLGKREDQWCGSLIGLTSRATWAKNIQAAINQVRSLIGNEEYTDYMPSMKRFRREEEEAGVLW
Potassium channel subfamily K member 3, sequence (O54912 whole entry, the tested form may be a part): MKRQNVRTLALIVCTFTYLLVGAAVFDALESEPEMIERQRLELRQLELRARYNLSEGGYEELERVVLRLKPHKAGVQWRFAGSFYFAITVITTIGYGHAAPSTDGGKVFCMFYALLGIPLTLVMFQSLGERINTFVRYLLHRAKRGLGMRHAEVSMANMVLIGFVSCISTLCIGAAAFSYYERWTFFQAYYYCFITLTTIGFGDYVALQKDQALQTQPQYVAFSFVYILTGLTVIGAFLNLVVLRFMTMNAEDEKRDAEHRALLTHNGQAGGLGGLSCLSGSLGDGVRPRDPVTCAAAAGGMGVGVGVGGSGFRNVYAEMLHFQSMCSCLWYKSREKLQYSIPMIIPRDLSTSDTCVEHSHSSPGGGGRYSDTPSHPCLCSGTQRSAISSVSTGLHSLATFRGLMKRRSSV

In the case of `Cc1cc(C)c(S(=O)(=O)NCCn2c(C)cc3ccccc32)c(C)c1`, the IC50 (Fibrinogen beta chain [1]) is reported as 15.1 µM (inactive) and the IC50 (Fibrinogen beta chain [2]) is reported as > 83.3 µM (inactive).

With `CC(=O)Nc1ccc(S(=O)(=O)N2CCN(CCCOc3ccccc3Cl)CC2)cc1` the CC50 [3] was > 40 µM (active).

For `Cc1ccc(NC(=O)c2ccc(OC(=O)COc3cccc(Cl)c3)cc2)cc1`, the IC50 (Prothrombin) was 0.596 µM (active).

In the case of `Cc1ccc(S(=O)(=O)ON2C(=O)c3ccccc3C2=O)c(C)c1`, the IC50 (Prothrombin) is reported as 0.856 µM (active), the IC50 (Coagulation factor XII) is reported as 8.48 µM (active) and the IC50 (Genome polyprotein) is reported as 96.3 µM (active). For the same compound, the IC50 (Fatty acid synthase [4]) was 1.35 µM (active) and the IC50 (Fatty acid synthase [5]) was 1.39 µM (active).

With `Cc1cc2c(cc1S(=O)(=O)N(C)c1ccccc1)n(C)c(=O)n2C` the EC50 [6] was > 120 µM (not active).

In the case of `COc1cccc(C(=O)Nc2cccc(NC(=O)c3ccccc3)c2)c1`, the IC50 [7] is reported as 0.42 µM (active), the IC50 [8] is reported as 25.9 µM (active) and the IC50 [9] is reported as 0.61 µM (active).

For `CC1=C(C(=O)OC(C)C)C(c2cccc([N+](=O)[O-])c2)C(C(=O)OC2CN(C(c3ccccc3)c3ccccc3)C2)=C(N)N1` (stereo not given) [AZELNIDIPINE], the IC50 [10] was 1.23 µM (active) and the IC50 [11] was 12.8 µM (inactive).
